Source: ChEMBL document CHEMBL6096738, “Optimization of Single Relaxin B-Chain Peptide Leads to the Identification of R2R01, a Potent, Long-Acting RXFP1 Agonist for Cardiovascular and Renal Diseases” (J Med Chem, 2025)
Starred links: 1 amine or outer side, 2 acyl side, 3 side chain; linkers in the order of their positions; H or OH if unused. Non-standard residues stand in square brackets, D forms with d. Residues, ends and D or L forms follow the SMILES beside them. Groups on a side chain read outwards from the residue. *: point of attachment. PEG12 = NCCOCCOCCOCCOCCOCCOCCOCCOCCOCCOCCOCCOCCC(=O)O; γGlu = O=C(O)[C@H](CCC(=O)[*:2])N[*:1]; Stearoyl = CCCCCCCCCCCCCCCCCC(=O)*; Nle = CCCC[C@H](N)C(=O)O; Aib = CC(C)(N)C(=O)O

Experiments:
[1] = Induction of mast cell degranulation in human LAD2 cells assessed as beta-hexosaminidase release by measuring 4-methylumbelliferyl N-acetyl-beta-D-glucosaminide hydrolysis incubated for 30 mins by plate reader analysis; assay type: toxicity, cell-based; conditions: probe 4-methylumbelliferyl N-acetyl-beta-D-glucosaminide
[2] = Induction of mast cell degranulation in human LAD2 cells assessed as beta-hexosaminidase release by measuring maximal efficacy of 4-methylumbelliferyl N-acetyl-beta-D-glucosaminide hydrolysis at 10 uM incubated for 30 mins by plate reader analysis relative to control; assay type: toxicity, cell-based; conditions: probe 4-methylumbelliferyl N-acetyl-beta-D-glucosaminide
[3] = Induction of immune response in human CD4+ T cells assessed as increase in auto reactive T cells at 3 uM preincubated with monocyte-derived immature dendritic cells followed by T cell addition and further stimulated on day 7 and 14 with autologous dendritic cells and measured after 5 days post last stimulation by IFNgamma-Elispot analysis; assay type: toxicity, cell-based; conditions: 120 h
Relaxin receptor 1 [4] = molecular target: T1, Relaxin receptor 1 (Homo sapiens, UniProt Q9HBX9); assay: Agonist activity at human RXFP1 expressed in human OVCAR-5 cells assessed as intracellular cAMP accumulation incubated for 30 mins by HTRF assay; assay type: functional, cell-based
T1 sequence (Q9HBX9 whole entry): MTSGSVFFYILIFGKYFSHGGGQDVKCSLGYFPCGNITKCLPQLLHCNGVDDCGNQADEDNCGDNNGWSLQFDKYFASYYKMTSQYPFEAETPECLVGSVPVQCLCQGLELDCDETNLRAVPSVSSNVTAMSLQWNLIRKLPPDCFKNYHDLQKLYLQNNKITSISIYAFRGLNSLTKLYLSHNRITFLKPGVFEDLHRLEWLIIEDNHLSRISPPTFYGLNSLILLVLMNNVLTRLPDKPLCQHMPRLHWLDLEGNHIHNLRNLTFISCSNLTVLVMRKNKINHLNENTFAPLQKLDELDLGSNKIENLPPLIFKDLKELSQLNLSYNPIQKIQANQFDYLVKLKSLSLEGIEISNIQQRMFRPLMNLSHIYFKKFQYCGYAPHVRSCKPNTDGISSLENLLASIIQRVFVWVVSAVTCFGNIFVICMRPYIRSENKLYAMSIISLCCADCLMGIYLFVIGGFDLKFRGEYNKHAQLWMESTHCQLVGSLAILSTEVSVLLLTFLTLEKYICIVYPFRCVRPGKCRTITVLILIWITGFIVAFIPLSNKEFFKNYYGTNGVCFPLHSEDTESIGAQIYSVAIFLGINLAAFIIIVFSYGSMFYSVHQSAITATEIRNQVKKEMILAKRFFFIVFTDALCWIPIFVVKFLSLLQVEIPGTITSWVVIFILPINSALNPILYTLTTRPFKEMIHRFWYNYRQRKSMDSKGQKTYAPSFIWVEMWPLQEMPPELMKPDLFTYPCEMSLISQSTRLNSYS

[5] = molecular target: T2, Relaxin receptor 1 (Homo sapiens) (UniProt Q9HBX9); assay: Agonist activity at human RXFP1 expressed in 2%HSA treated human OVCAR-5 cells assessed as intracellular cAMP accumulation by measuring maximal efficacy incubated for 30 mins with 2% HSA pretreated compound by HTRF assay relative to control; assay type: functional, cell-based; conditions: filed as agonist
T2 sequence (whole entry): T1 sequence (Q9HBX9 whole entry)

Relaxin receptor 1 [6] = molecular target: T1, Relaxin receptor 1; assay: Agonist activity at human RXFP1 expressed in 2%HSA treated human OVCAR-5 cells assessed as intracellular cAMP accumulation incubated for 30 mins with 2% HSA pretreated compound by HTRF assay; assay type: functional, cell-based
[7] = molecular target: T2, Relaxin receptor 1 (Homo sapiens); assay: Agonist activity at human RXFP1 expressed in human OVCAR-5 cells assessed as intracellular cAMP accumulation by measuring maximal efficacy incubated for 30 mins by HTRF assay relative to control; assay type: functional, cell-based; conditions: filed as agonist
[8] = Half-life in male Sprague-Dawley rat at 1 mg/kg, iv measured after 198 hrs by LC-HRMS analysis; assay type: ADME, organism-based; conditions: in vivo

Row | EC50 (Relaxin receptor 1 [4]) | Emax [5] | EC50 (Relaxin receptor 1 [6]) | Emax [7] | half-life [8] | Structure (SMILES) | EC50 at 30 min [1] | Emax at 0.5 h, 10 µM [2] | Activity [3]
1 | – | – | – | – | – | CC[C@H](C)[C@H](NC(=O)[C@H](Cc1ccccc1)NC(=O)[C@H](CCC(=O)O)NC(=O)[C@H](CCCCN)NC(=O)[C@H](C)NC(=O)[C@H](C)NC(=O)[C@H](CCC(N)=O)NC(=O)CNC(=O)[C@H](CCC(=O)O)NC(=O)[C@H](CC(C)C)NC(=O)[C@H](Cc1ccc(O)cc1)NC(=O)[C@H](CO)NC(=O)[C@H](CO)NC(=O)[C@@H](NC(=O)[C@H](CC(=O)O)NC(=O)[C@H](CO)NC(=O)[C@@H](NC(=O)[C@H](Cc1ccccc1)NC(=O)[C@@H](NC(=O)CNC(=O)[C@H](CCC(=O)O)NC(=O)[C@H](C)NC(=O)[C@@H](N)Cc1c[nH]cn1)[C@@H](C)O)[C@@H](C)O)C(C)C)C(=O)N[C@@H](C)C(=O)N[C@@H](Cc1c[nH]c2ccccc12)C(=O)N[C@@H](CC(C)C)C(=O)N[C@H](C(=O)N[C@@H](CCCCN)C(=O)NCC(=O)N[C@@H](CCCNC(=N)N)C(N)=O)C(C)C | […] | 2.5% | –
2 | – | – | – | – | – | CCCC[C@H](NC(=O)CNC(=O)[C@H](CCC(=O)O)NC(=O)C(C)(C)NC(=O)C(C)(C)NC(=O)[C@@H](NC(=O)[C@H](CCCCNC(C)=O)NC(=O)[C@H](C)NC(=O)[C@H](CCCNC(=N)N)NC(=O)[C@@H](NC(=O)[C@H](CCCCN)NC(=O)[C@H](CCC(=O)O)NC(=O)[C@H](CCCNC(=N)N)NC(=O)CNC(=O)[C@H](CCC(=O)O)NC(=O)[C@H](CC(C)C)NC(C)=O)C(C)C)[C@@H](C)CC)C(=O)N[C@@H](CO)C(=O)N[C@H](C(=O)N[C@@H](Cc1c[nH]c2ccccc12)C(=O)N[C@@H](CO)C(=O)NC(C)(C)C(=O)N[C@@H](CCCNC(=N)N)C(=O)N[C@@H](CCCCN)C(=O)N[C@@H](CCCCNC(C)=O)C(N)=O)[C@@H](C)O (Ac-LEGREKVRAK(Ac)I[Aib][Aib]EG[Nle]STWS[Aib]RKK(Ac)-NH2) | – | – | Non-toxic
3 | 0.6 nM | 84% | 9 nM | 95% | 4.3 h | CCCCCCCCCCCCCCCCCC(=O)N[C@@H](CCC(=O)N[C@@H](CCC(=O)N[C@@H](CCC(=O)NCCCC[C@H](NC(=O)CCOCCOCCOCCOCCOCCOCCOCCOCCOCCOCCOCCOCCNC(=O)[C@H](CCCCNC(C)=O)NC(=O)[C@H](CCCCN)NC(=O)[C@H](CCCNC(=N)N)NC(=O)C(C)(C)NC(=O)[C@H](CO)NC(=O)[C@H](Cc1c[nH]c2ccccc12)NC(=O)[C@@H](NC(=O)[C@H](CO)NC(=O)[C@H](CCCC)NC(=O)CNC(=O)[C@H](CCC(=O)O)NC(=O)C(C)(C)NC(=O)C(C)(C)NC(=O)[C@@H](NC(=O)[C@H](CCCCNC(C)=O)NC(=O)[C@H](C)NC(=O)[C@H](CCCNC(=N)N)NC(=O)[C@@H](NC(=O)[C@H](CCCCN)NC(=O)[C@H](CCC(=O)O)NC(=O)[C@H](CCCNC(=N)N)NC(=O)CNC(=O)[C@H](CCC(=O)O)NC(=O)[C@H](CC(C)C)NC(C)=O)C(C)C)[C@@H](C)CC)[C@@H](C)O)C(N)=O)C(=O)O)C(=O)O)C(=O)O (Ac-LEGREKVRAK(Ac)I[Aib][Aib]EG[Nle]STWS[Aib]RKK(Ac)[PEG12]K([γGlu-γGlu-γGlu-Stearoyl])-NH2) | – | – | Non-toxic
